Test systems include 786-0 renal; EKVX NSCLC; HCT-116 colon; HL-60(TB) leukemia; MCF7 breast; NCI-H23 lung; OVCAR-3 ovarian; OVCAR-8 ovarian; RPMI-8226 leukemia; SF-268 CNS; SNB-19 CNS; U251 CNS; UACC-62 melanoma; HT29 colon; OVCAR-4 ovarian; BT-549 breast.
What all share (experiment): inhibition of tumour cell growth, NCI panel, 48 h

Molecules are shown by their SMILES.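 Values below derive from 48-hour exposures of cells grown in 96-well plates, with endpoints linearly interpolated between the two concentrations bracketing the appropriate inhibition level. TGI is the concentration that stops growth completely.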

With `O=C(O)c1cccc(NC(C(=O)c2ccccc2)c2ccccc2)c1` (configuration not stated), the TGI in the assay with 786-0 renal, in the assay with EKVX NSCLC, with HCT-116 colon, with HL-60(TB) leukemia, with MCF7 breast and in the assay on NCI-H23 lung was above 100 µM each time. Further, the TGI in the assay on OVCAR-3 ovarian, in the assay with OVCAR-8 ovarian, with RPMI-8226 leukemia, in the assay on SF-268 CNS, in the assay on SNB-19 CNS and with U251 CNS was above 100 µM in each case. This molecule registered a TGI with UACC-62 melanoma above 100 µM.

Regarding `CCNc1cc2c3c(c1)CCN3CCC2`, the TGI in the assay with 786-0 renal, in the assay on EKVX NSCLC, with HCT-116 colon, in the assay on HL-60(TB) leukemia, with HT29 colon and with MCF7 breast was above 10 µM in each case. Besides, the TGI in the assay on NCI-H23 lung, in the assay on OVCAR-3 ovarian, in the assay on OVCAR-4 ovarian, in the assay with OVCAR-8 ovarian, in the assay with RPMI-8226 leukemia and in the assay on SF-268 CNS was above 10 µM each time. Moreover, the TGI in the assay with SNB-19 CNS, with U251 CNS and in the assay on UACC-62 melanoma was above 10 µM throughout.

As to `O=c1[nH]c(=O)n(C2OC(CO)C(O)C2O)cc1OCCCc1ccccc1` (configuration not stated), the TGI in the assay on 786-0 renal, in the assay with EKVX NSCLC, with HCT-116 colon, in the assay with HL-60(TB) leukemia, in the assay on HT29 colon and with MCF7 breast was above 100 µM in each case. The TGI with NCI-H23 lung, in the assay on OVCAR-3 ovarian, in the assay with OVCAR-4 ovarian, in the assay with OVCAR-8 ovarian, in the assay on SF-268 CNS and in the assay on SNB-19 CNS was above 100 µM in each case. In the assay on UACC-62 melanoma, this molecule returned a TGI above 100 µM.

Take `O=C1C2C=CC(n3[nH]c(=O)n(Cc4ccccc4)c3=O)CC2C(=O)N1c1ccc(Br)cc1` (configuration not stated): the TGI in the assay on 786-0 renal, with EKVX NSCLC, in the assay with HCT-116 colon, in the assay on HL-60(TB) leukemia, with HT29 colon and in the assay on NCI-H23 lung was above 100 µM in each case. Besides, the TGI in the assay with OVCAR-3 ovarian, in the assay on OVCAR-4 ovarian, in the assay with OVCAR-8 ovarian, with RPMI-8226 leukemia, in the assay on SF-268 CNS and with SNB-19 CNS was above 100 µM throughout. The TGI in the assay on U251 CNS and in the assay on UACC-62 melanoma was above 100 µM in each case.

On to `O=C(N=Nc1ccccc1Cl)NNc1ccccc1Cl`, for which the TGI with 786-0 renal is 34.4 µM; in the assay with HCT-116 colon, above 100 µM; with HL-60(TB) leukemia it was 44.9 µM; in the assay on HT29 colon it was above 100 µM; in the assay with NCI-H23 lung it was above 100 µM; with OVCAR-3 ovarian, 95.3 µM. In addition, the TGI is 58.5 µM in the assay with OVCAR-4 ovarian; 81.7 µM in the assay on OVCAR-8 ovarian; 65.6 µM in the assay with RPMI-8226 leukemia; above 100 µM with SF-268 CNS; above 100 µM with SNB-19 CNS; above 100 µM in the assay on U251 CNS. This molecule gave a TGI in the assay with UACC-62 melanoma above 100 µM.

Take `O=c1c2ccccc2nc2ccc3c(Cl)[nH][nH]c3c12`: the TGI in the assay with 786-0 renal, with EKVX NSCLC, in the assay on HCT-116 colon, in the assay on HL-60(TB) leukemia, in the assay on HT29 colon and in the assay on NCI-H23 lung was above 100 µM each time. For the same molecule, the TGI in the assay with OVCAR-3 ovarian, with OVCAR-4 ovarian, in the assay with OVCAR-8 ovarian, with RPMI-8226 leukemia, in the assay with SF-268 CNS and with SNB-19 CNS was above 100 µM in each case. Besides, the TGI in the assay with U251 CNS was above 100 µM; in the assay with UACC-62 melanoma, above 77.7 µM.

Regarding `O=C(O)c1ccccc1C1c2ccccc2Oc2ccccc21`, the TGI in the assay with 786-0 renal, in the assay on BT-549 breast, in the assay with EKVX NSCLC, with HCT-116 colon, in the assay on HL-60(TB) leukemia and in the assay on HT29 colon was above 100 µM in each case. In addition, the TGI in the assay on NCI-H23 lung was above 100 µM; in the assay on OVCAR-3 ovarian, 90.1 µM; with OVCAR-4 ovarian it was above 100 µM; with OVCAR-8 ovarian, above 100 µM; in the assay with RPMI-8226 leukemia it was above 100 µM; in the assay with SF-268 CNS, above 100 µM. The TGI in the assay on SNB-19 CNS, in the assay on U251 CNS and in the assay with UACC-62 melanoma was above 100 µM each time.

`CC1(C)C=C(/C=N/Nc2ccccc2)C(C#N)=C(O)C1(C#N)C#N`: the TGI with 786-0 renal, in the assay with EKVX NSCLC, with HCT-116 colon, in the assay on HL-60(TB) leukemia, in the assay on HT29 colon and in the assay with MCF7 breast was above 100 µM throughout. Further, the TGI with NCI-H23 lung, in the assay with OVCAR-3 ovarian, with OVCAR-4 ovarian, in the assay with OVCAR-8 ovarian, in the assay on RPMI-8226 leukemia and in the assay on SF-268 CNS was above 100 µM in each case. The TGI with SNB-19 CNS and with UACC-62 melanoma was above 100 µM throughout.

Turning to `CC(=O)OCC1OC(n2c(C)c(C)c(C)c(C#N)c2=S)C(OC(C)=O)C(OC(C)=O)C1OC(C)=O` (configuration not stated), the TGI with 786-0 renal is 93.1 µM; with EKVX NSCLC it was 94.3 µM; in the assay on HCT-116 colon, 67.7 µM; in the assay on HL-60(TB) leukemia it was above 100 µM; with HT29 colon, above 100 µM; in the assay with MCF7 breast, above 100 µM. Further, the TGI in the assay with NCI-H23 lung, with OVCAR-3 ovarian, in the assay on OVCAR-4 ovarian, in the assay on OVCAR-8 ovarian, with SF-268 CNS and in the assay with SNB-19 CNS was above 100 µM in each case. Besides, the TGI with U251 CNS and in the assay with UACC-62 melanoma was above 100 µM throughout.

With `CCC(=O)OC1CCn2c1nc1c2C(=O)C(C)=C(NC(C)=O)C1=N` (configuration not stated), the TGI with 786-0 renal was 6.06 µM; in the assay with EKVX NSCLC, 5.48 µM; in the assay with HCT-116 colon it was 2.39 µM; in the assay on HT29 colon, 3.36 µM; with NCI-H23 lung, 3.23 µM; in the assay with OVCAR-3 ovarian, 3.31 µM. The TGI was 2.66 µM in the assay with OVCAR-4 ovarian; 2.89 µM in the assay on OVCAR-8 ovarian; 4.94 µM in the assay on SF-268 CNS; 16.8 µM with SNB-19 CNS; 17.2 µM in the assay on U251 CNS; 2.71 µM in the assay on UACC-62 melanoma.

The values above are taken from PubChem BioAssay (NCI).
